Assay in all cases: Bliss excess, mean over the matrix (fraction); higher = more synergy
The subject of test [1] is MLMA (Other Blood Carcinomas). Put shortly: (§1)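 Cell lines grown in DMEM/F12 or RPMI with 10% FBS were plated in 1536-well plates and held 24 hours at 37°C, 5% CO2 before 72 hours of exposure to two-drug dose matrices, with DMSO typically at 0.2%. CellTiter-Glo 2.0 luminescence gave viability, which was converted to inhibition. Vehicle wells were set to 0 and blank wells to 1. Combination Emax is the second-highest inhibition in the matrix, and Bliss excess is the observed combination effect minus the expected EA + EB − EA·EB, where EA and EB are the single-agent effects.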

In test [2] the test system is OSC-20 (Oral Cavity Carcinoma). Put shortly:
as §1

Test [3] relates to BT-549 (Breast Carcinoma). Put shortly: as §1
Test [4] relates to KARPAS-299 (T-Cell Non-Hodgkin's Lymphoma). Put shortly: as §1
The test system of test [5] is LU-65 (Non-Small Cell Lung Carcinoma). The procedure, abridged: as §1
For test [6], the system named is EFM-19 (Breast Carcinoma). Put shortly:
as §1

Test [7] relates to OVCAR-4 (Ovarian Carcinoma). Put shortly: as §1
Test [8] relates to NCI-H727 (Other Solid Carcinomas). Put shortly: as §1
Test [9] concerns C-4-I (Cervical Carcinoma). Put shortly:
as §1

Test [10] concerns AMO-1 (Plasma Cell Myeloma). Put shortly:
as §1

Test [11] has as its system HSC-4 (Oral Cavity Carcinoma). Put shortly: as §1
The next test deals with D-263MG (Glioblastoma). Put shortly: as §1
For test [12], the system named is KYSE-450 (Esophageal Squamous Cell Carcinoma). The procedure, abridged:
as §1

In a further test the test system is TGW (Neuroblastoma). Put shortly:
as §1

The subject of test [13] is Hs-766T (Pancreatic Carcinoma). The procedure, abridged: as §1
Test [14] has as its system SCC-15 (Oral Cavity Carcinoma). The procedure, abridged:
as §1

Test [15] concerns SW13 (Other Solid Carcinomas). Put shortly:
as §1

The test system of test [16] is OE19 (Esophageal Adenocarcinoma). The procedure, abridged: as §1
For another test, the system named is UACC-62 (Melanoma). Put shortly: as §1
Test [17] has as its system NCI-H1915 (Non-Small Cell Lung Carcinoma). The procedure, abridged:
as §1

Structures are written as SMILES.

As for `Cc1c2c(nn1C)CSCc1cc(n(C)n1)CSc1cc(c3ccccc3c1)OCCCc1c(C(=O)O)n(C)c3c-2c(Cl)ccc13` [AZD5991] + CC1(C)CCC(CN2CCN(c3ccc(C(=O)NS(=O)(=O)c4ccc(NCC5CCOCC5)c([N+](=O)[O-])c4)c(Oc4cnc5[nH]ccc5c4)c3)CC2)=C(c2ccc(Cl)cc2)C1 [Venetoclax] (first compound max 1 µM, 7x7, partner max 1 µM), the Bliss excess was -0.0034 in [1]; -0.0059 in test [2]; 0.0296 in test [3]; 0.0445 in [4]; -0.0487 in test [5]; 0.0055 in test [6]. Also, the Bliss excess in test [7] is 0.0108; in test [8], -0.012; in [9], -0.0019; in [10] it was 0.0456; in test [11], -0.0498; in the test with D-263MG (Glioblastoma), -0.0036. Also, the Bliss excess in test [12] was -0.0061; in the test with TGW (Neuroblastoma), 0.128; in test [13], -0.132; in test [14], -0.0341; in test [15] it was 0.0016; in test [16] it was -0.0285. In addition, the Bliss excess with UACC-62 (Melanoma) was 0.0296; in test [17] it was -0.0211.
For `Cc1c2c(nn1C)CSCc1cc(n(C)n1)CSc1cc(c3ccccc3c1)OCCCc1c(C(=O)O)n(C)c3c-2c(Cl)ccc13` [AZD5991] + CCN(CCO)CCCOc1ccc2c(Nc3cc(CC(=O)Nc4cccc(F)c4)[nH]n3)ncnc2c1 [AZD2811] (first compound max 1 µM, 7x7, partner max 1 µM), the Bliss excess is 0.028 in test [1]; 0.0042 in [2]; 0.0908 in [3]; 0.0426 in test [4]; -0.0258 in test [5]; 0.122 in test [6]. Also, the Bliss excess was 0.0989 in [7]; 0.0473 in [8]; 0.0332 in test [9]; 0.0145 in test [10]; -0.0283 in [11]; 0.122 with D-263MG (Glioblastoma). For the same compound, the Bliss excess in [12] is 0.0499; with TGW (Neuroblastoma), 0.0418; in test [13], -0.0019; in [14], -0.0061; in [15] it was 0.0895; in test [16], -0.0098. For the same compound, the values for the Bliss excess (in the test with UACC-62 (Melanoma); in [17]) were -0.0113 and 0.0197, respectively.
Regarding `Cc1c2c(nn1C)CSCc1cc(n(C)n1)CSc1cc(c3ccccc3c1)OCCCc1c(C(=O)O)n(C)c3c-2c(Cl)ccc13` [AZD5991] + CN(C)CCCOc1ccc(-c2ccc3ncc4c(c3c2)n(C2CCOCC2)c(=O)n4C)cn1 [AZD0156] (first compound max 1 µM, 7x7, partner max 1 µM), the Bliss excess was -0.0056 in [1]; 0.0236 in [2]; -0.004 in [3]; 0.016 in test [4]; -0.001 in test [5]; -0.03 in [6]. Moreover, the Bliss excess was 0.0076 in [7]; 0.043 in test [8]; 0.0063 in test [9]; 0.0058 in [10]; -0.0955 in test [11]; 0.0047 with D-263MG (Glioblastoma). Besides, the Bliss excess was 0.0134 in test [12]; -0.0079 in the test on TGW (Neuroblastoma); -0.0006 in [13]; -0.0048 in test [14]; -0.0092 in [15]; -0.0242 in test [16]. In addition, the Bliss excess in the test on UACC-62 (Melanoma) is -0.0516; in test [17] it was -0.0186.
For `Cc1c2c(nn1C)CSCc1cc(n(C)n1)CSc1cc(c3ccccc3c1)OCCCc1c(C(=O)O)n(C)c3c-2c(Cl)ccc13` [AZD5991] + Cc1cc2ncnn2cc1Nc1ncc2c(n1)n(C1CCOCC1)c(=O)n2C [AZD7648] (first compound max 1 µM, 7x7, partner max 10 µM), the Bliss excess is -0.0001 in test [1]; -0.0567 in test [2]; -0.0523 in test [3]; -0.0066 in [4]; -0.105 in test [5]; -0.0215 in test [6]. The Bliss excess in test [7] was -0.0073; in test [8], -0.0833; in test [9] it was -0.0135; in test [10] it was -0.0215; in test [11] it was -0.0702; in the test with D-263MG (Glioblastoma) it was 0.0046. For the same compound, the Bliss excess in test [12] was -0.0321; with TGW (Neuroblastoma), -0.03; in [13], -0.0936; in test [14], -0.042; in [15] it was 0.0165; in test [16], -0.0645. The Bliss excess with UACC-62 (Melanoma) is -0.0534; in test [17], -0.0226.
For the compound `C[C@@H]1COCCN1c1cc(C2([S@](C)(=N)=O)CC2)nc(-c2ccnc3[nH]ccc23)n1` [AZD6738] + O=C(c1cc(Cc2n[nH]c(=O)c3ccccc23)ccc1F)N1CCN(C(=O)C2CC2)CC1 [Olaparib] (first compound max 10 µM, 7x7, partner max 10 µM), the Bliss excess in test [1] was -0.15; in test [2], 0.0171; in test [3] it was 0.0032; in test [4], -0.0073; in test [5], 0.0026; in test [6], 0.0141. In addition, the Bliss excess in test [7] was 0.0035; in test [8], -0.0317; in test [9], -0.0144; in test [10], -0.0316; in test [11], -0.0172; in the test with D-263MG (Glioblastoma), 0.0604. Besides, the Bliss excess in test [12] is 0.0066; in the test with TGW (Neuroblastoma), -0.0469; in test [13] it was -0.0039; in [14] it was 0.0011; in [15], 0.0093; in test [16] it was -0.133. Also, the Bliss excess is 0.0235 with UACC-62 (Melanoma) and -0.0182 in test [17].
Consider `NC1(C(=O)N[C@@H](CCO)c2ccc(Cl)cc2)CCN(c2ncnc3[nH]ccc23)CC1` [Capivasertib] + CC(=O)c1c(C)c2cnc(Nc3ccc(N4CCNCC4)cn3)nc2n(C2CCCC2)c1=O [Palbociclib] (first compound max 10 µM, 7x7, partner max 10 µM), for which the Bliss excess in [1] is -0.0769; in test [2], -0.0005; in [3], -0.0064; in test [4], 0.0205; in [5], -0.151; in test [6], -0.0107. Further, the Bliss excess in test [7] is -0.0517; in test [8] it was -0.0139; in test [9], -0.0334; in test [10], 0.0364; in test [11], -0.0777; in the test on D-263MG (Glioblastoma) it was 0.0117. Further, the Bliss excess in [12] is 0.0133; in the test on TGW (Neuroblastoma) it was -0.0744; in test [13], 0.0056; in [14] it was -0.0456; in test [15] it was -0.0236; in test [16], -0.0854. Moreover, the Bliss excess in the test on UACC-62 (Melanoma) was -0.057; in [17], -0.0247.
As to `NC1(C(=O)N[C@@H](CCO)c2ccc(Cl)cc2)CCN(c2ncnc3[nH]ccc23)CC1` [Capivasertib] + CC(C)n1c(=O)n(C)c2cnc3cc(F)c(-c4ccc(OCCCN5CCCCC5)nc4)cc3c21 [AZD1390] (first compound max 10 µM, 7x7, partner max 0.3 µM), the Bliss excess in [1] is -0.0216; in [2], -0.0528; in [3], -0.071; in [4], 0.015; in test [5], -0.248; in [6], -0.0614. In addition, the Bliss excess in [7] is -0.0488; in [8] it was -0.0922; in [9] it was -0.027; in [10], 0.0042; in [11] it was -0.0891; with D-263MG (Glioblastoma) it was -0.0713. The Bliss excess in test [12] was -0.0209; in the test with TGW (Neuroblastoma), -0.106; in [13] it was -0.082; in [14], -0.0796; in test [15], 0.0127; in test [16] it was -0.0026. The Bliss excess in the test with UACC-62 (Melanoma) was -0.0888; in test [17], -0.0621.
